This note sets out measurements from patent publication US10688093B2, “Methods, compositions, and uses of novel Fyn kinase inhibitors” (priority 2015, dated 2020).

full-length recombinant human FYN A, sequence (P06241 whole entry): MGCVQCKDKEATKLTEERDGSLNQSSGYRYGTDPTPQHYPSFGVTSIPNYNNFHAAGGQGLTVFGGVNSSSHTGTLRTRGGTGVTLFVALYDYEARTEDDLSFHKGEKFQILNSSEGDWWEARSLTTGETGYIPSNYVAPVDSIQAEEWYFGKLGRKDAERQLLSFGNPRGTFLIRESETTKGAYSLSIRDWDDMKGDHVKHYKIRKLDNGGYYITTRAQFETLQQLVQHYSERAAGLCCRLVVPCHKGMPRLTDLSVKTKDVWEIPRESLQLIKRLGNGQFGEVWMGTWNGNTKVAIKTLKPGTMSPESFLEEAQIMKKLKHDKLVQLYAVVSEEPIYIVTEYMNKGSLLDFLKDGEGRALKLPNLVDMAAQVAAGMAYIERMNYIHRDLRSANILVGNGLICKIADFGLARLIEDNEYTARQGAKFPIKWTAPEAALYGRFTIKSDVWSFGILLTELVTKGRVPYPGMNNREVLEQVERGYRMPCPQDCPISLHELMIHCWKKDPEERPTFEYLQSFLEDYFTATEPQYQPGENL

The test has as its target full-length recombinant human FYN A (Homo sapiens (Human), UniProt P06241). Description: ADP-Glo Kinase Assay of FYN kinase inhibition. The format is biochemical. Particulars: primary screen, initial compounds. From the text:
The chemical library was comprised of the SoftFocus ATP-competitive hinge binding compounds described by Harris, C. J., Hill, R. D., Sheppard, D. W., et al., The Design and Application of Target-Focused Compound Libraries. Combinatorial Chemistry and High Throughput Screening 14:521-31 (2011). The specific pharmacore chemistries included SFK52 comprising 6-[R2]-3-[R1]imidazo[1,2-b] pyridazine compounds, SFK33 comprising N-(3-[R2] imidazo [1,2-b] pyridazin-6-yl) [R1] amine compounds, SFK49 comprising N-(5-[R2] imidazo [2,1-b][1,3,4] thiadiazol-2-yl)[R1]-amine compounds, SFK 40 comprising 5-[R2]-3-[R1] pyridin-2-amine compounds, SFK43 comprising 6-[R2]-3-[R1]imidazo[1,2-a]pyrazine compounds, and SFK63. The chemical structures of the initial 600 potential kinase inhibitors are presented in Table 3, with those chosen for additional analysis presented in Table 4. Comparison of the compounds presented in Table 1 and those of Tables 2, 3 and 4, illustrate the novelty of the chemical structures claimed herein.
FYN kinase (10 micrograms) was from the FYN A Kinase Enzyme System (V3571, Promega UK Ltd.), a full-length recombinant human FYN A containing an N-terminal GST tag of about 85 kDa, expressed by bacullovirus in […] insect cells, supplied at a concentration of 0.1 microgram/microliter in 5×reaction buffer. The FYN substrate, a 12 amino acid peptide of the sequence […], containing a single tyrosine phosphorylation site, was custom synthesized (Peptide Synthetics, Peptide Protein Research, Fareham, UK) and supplied as a 4 mg/ml aqueous solution. All other reagents were obtained from Sigma (Sigma-Aldrich, Gillingham, Dorset, UK), with the exception of UltraPure ATP (V9102, Promega UK Ltd.) and the ATP-competitive broad spectrum protein kinase inhibitor staurosporine (569397, Merck Millipore, Watford, Hertfordshire, UK), or as otherwise indicated.
The assay procedure determines the IC50 of each potential FYN kinase inhibitor by measuring the enzyme catalyzed ATP-dependent phosphorylation of the FYN substrate peptide. The ADP-Glo™ Kinase Assay is specifically designed to quantify kinase activity by measuring the ADP produced in the reaction The reaction buffer comprises 40 mM Tris.HCl (pH 7.5), 20 mM MgCl2, 0.1 mg/ml BSA and 5 microM DTT. Individual compounds within the chemical library were dissolved in DMSO at known concentrations. Briefly, 2.5 microliters of reaction buffer containing 3 picograms of FYN kinase and serial dilutions of each potential FYN kinase inhibitor (9 3-fold dilutions of a 10 micromolar top sample) are placed into each well of a 384 well microtiter plate and incubated at room temperature for 30 minutes. An additional 2.5 microliters of reaction buffer containing 100 picograms of the FYN substrate and 12.5 picomoles of ATP are then added to each well and the reaction carried out for 90 minutes at room temperature. The reactions are terminated by addition of 5 microliters of the ADP-Glo™ Reagent component of the ADP-Glo™ Kinase Assay kit to each well. The ADP-Glo™ Reagent comprises an ATP-dependent adenylate cyclase, an inorganic pyrophosphatase and an excess of staurosporine. The adenylate cyclase converts the remaining ATP to cAMP and pyrophospahte, the pyrophosphatase converts the pyrophosphate to phosphate and the staurosporine inhibits the activity of the FYN kinase, the net effect is to remove all residual ATP while preserving the ADP produced by FYN kinase. The terminated reactions are incubated for 40 minutes at room temperature, prior to addition of the Kinase Detection Reagent component of the ADP-Glo™ Kinase Assay kit to each well. The Kinase Detection Reagent comprises pyruvate kinase, phosphoenol pyruvate (PEP), luciferin and luciferase. The pyruvate kinase converts PEP to pyruvate and in the process generates ATP from the residual ADP present in the terminated reaction. […]
On the technique in general: ADP-Glo first removes unused ATP, then detects ADP through luciferase.
One may read the IC50 as the concentration needed to halve the response being measured. For the compound `O=C(O)c1ccc(-c2cnc3ccc(NCc4ccc(Cl)c(Cl)c4)nn23)cc1` [229_0227_0140, 4-[6-[(3,4-dichlorophenyl)methylamino]imidazo[1,2-b]pyridazin-3-yl]benzoic acid], the IC50 amounted to 1010 nM.

Consider `c1cc(-c2cnc3ccc(NCc4ccc5c(c4)OCO5)nn23)ccn1` [229_0236_0069, N-(1,3-benzodioxol-5-ylmethyl)-3-(4-pyridyl)imidazo [1,2-b]pyridazin-6-amine], for which the IC50 turned out to be 380 nM.

With `Oc1ccc(-c2cnc3ccc(NCc4ccc5c(c4)OCO5)nn23)cc1` [229_0236_0080, 4-[6-(1,3-benzodioxol-5-ylmethyl-amino)imidazo[1,2-b]pyridazin-3-yl]phenol], the IC50 is 5670 nM.

For `c1ccc(-c2cnc3ccc(NCc4ccncc4)nn23)cc1` [229_0237_0061, 3-phenyl-N-(4-pyridylmethyl) imidazo[1,2-b]pyridazin-6-amine], the IC50 was 4060 nM.

As for `c1ccc2oc(-c3cnc4ccc(NCc5ccncc5)nn34)cc2c1` [229_0237_0073, 3-(benzofuran-2-yl)-N-(4-pyridylmethyl) imidazo[1,2-b]pyridazin-6-amine], the IC50 was determined as 6450 nM.

As for `Nc1cccc(-c2cnc3ccc(NC4CCOCC4)nn23)c1` [229_0242_0005, 3-(3-aminophenyl)-N-tetrahydro-pyran-4-yl-imidazo[1,2-b]pyridazin-6-amine], the IC50 turned out to be 746 nM.

As to `COc1ccc(-c2cnc3ccc(NC4CCOCC4)nn23)cc1OC` [229_0242_0079, 3-(3,4-dimethoxy-phenyl)-N-tetra-hydropyran-4-yl-imidazo[1,2-b]pyridazin-6-amine], the half-inhibitory concentration (IC50) was 547 nM.

`CC(=O)Nc1cccc(-c2cnc3ccc(NC4CCOCC4)nn23)c1` [229_0242_0081, N-[3-[6-(tetrahydro-pyran-4-ylamino)imidazo[1,2-b]pyridazin-3-yl]phenyl] acetamide]: the IC50 was determined as 588 nM.

With `COc1cc(-c2cnc3ccc(NC4CCOCC4)nn23)cc(OC)c1OC` [229_0242_0087, N-tetrahydropyran-4-yl-3-(3,4,5-trimethoxy-phenyl) imidazo[1,2-b]pyridazin-6-amine], the IC50 was found to be 617 nM.

In the case of `c1cc2cc(-c3cnc4ccc(NC5CCOCC5)nn34)ccc2[nH]1` [229_0242_0204, 3-(1H-indol-5-yl)-N-tetrahydropyran-4-yl-imidazo[1,2-b]pyridazin-6-amine], the IC50 worked out at 1170 nM.

Take `Nc1ccc(-c2cnc3ccc(NC4CCOCC4)nn23)cc1` [229_0242_0333, 3-(4-aminophenyl)-N-tetrahydropyran-4-yl-imidazo[1,2-b]pyridazin-6-amine]: the IC50 turned out to be 3130 nM.

With `COc1cccc(-c2cnc3ccc(NC4CCOCC4)nn23)c1` [229_0242_4140, 3-(3-methoxy-phenyl)-N-tetrahydro-pyran-4-yl-imidazo[l,2-b]pyridazin-6-amine], the IC50 was determined as 870 nM.

As to `COc1ccc(CNc2ccc3ncc(-c4ccc(O)c(OC)c4)n3n2)cc1` [229_0244_0314, 2-methoxy-4-[6-[(4-methoxyphenyl)methylamino]imidazo[1,2-b]pyridazin-3-yl]phenol], the IC50 was 4010 nM.

On to `OCCCNc1ccc2ncc(-c3ccc4c(c3)OCO4)n2n1` [229_0248_0068, 3-[[3-(1,3-benzodioxol-5-yl)imidazo[1,2-b]pyridazin-6-yl]amino] propan-1-ol], for which the IC50 amounted to 929 nM.

As to `OCCCNc1ccc2ncc(-c3ccc4[nH]ccc4c3)n2n1` [229_0248_0204, 3-[[3-(1H-indol-5-yl)imidazo[1,2-b]pyridazin-6-yl]amino] propan-1-ol], the IC50 worked out at 2720 nM.

Consider `OCCCNc1ccc2ncc(-c3cccc(C(F)(F)F)c3)n2n1` [229_0248_0312, 3-[[3-[3-(trifluoro-methyl)phenyl]imidazo[1,2-b]pyridazin-6-yl]amino] propan-1-ol], for which the IC50 amounted to 3410 nM.

Take `COc1cc(-c2cnc3ccc(NCCCO)nn23)ccc1O` [229_0248_0314, 4-[6-(3-hydroxy-propylamino)imidazo[1,2-b]pyridazin-3-yl]-2-methoxy-phenol]: the IC50 came out at 329 nM.

In the case of `OCCCNc1ccc2ncc(-c3ccc(Oc4ccccc4)cc3)n2n1` [229_0248_1029, 3-[[3-(4-phenoxyphenyl)imidazo[1,2-b]pyridazin-6-yl]amino] propan-1-ol], the IC50 was found to be 5540 nM.

On to `CC(C)[C@@H](CO)Nc1ccc2ncc(-c3cccc(N)c3)n2n1` [229_0254_0005, (2S)-2-[[3-(3-aminophenyl)imidazo[1,2-b]pyridazin-6-yl]amino]-3-methyl-butan-1-ol], for which the IC50 came out at 1810 nM.

Take `CC(C)[C@@H](CO)Nc1ccc2ncc(-c3ccc4c(c3)OCO4)n2n1` [229_0254_0068, (2S)-2-[[3-(1,3-benzodioxol-5-yl)imidazo[1,2-b]pyridazin-6-yl]amino]-3-methyl-butan-1-ol]: the 50% inhibitory concentration (IC50) came to 1820 nM.

As for `COc1ccc(-c2cnc3ccc(N[C@H](CO)C(C)C)nn23)cc1OC` [229_0254_0079, (2S)-2-[[3-(3,4-dimethoxyphenyl)imidazo[1,2-b]pyridazin-6-yl]amino]-3-methyl-butan-1-ol], the IC50 was determined as 778 nM.

As for `CC(=O)Nc1cccc(-c2cnc3ccc(N[C@H](CO)C(C)C)nn23)c1` [229_0254_0081, N-[3-[6-[[(1S)-1-(hydroxymethyl)-2-methyl-propyl]amino]imidazo[1,2-b]pyridazin-3-yl]phenyl] acetamide], the IC50 worked out at 801 nM.

For `CC(C)[C@@H](CO)Nc1ccc2ncc(-c3ccc(C#N)cc3)n2n1` [229_0254_0086, 4-[6-[[(1S)-1-(hydroxymethyl)-2-methyl-propyl]amino]imidazo[1,2-b]pyridazin-3-yl]benzonitrile], the IC50 was 3180 nM.

Consider `CC(C)[C@@H](CO)Nc1ccc2ncc(-c3ccc(N)cc3)n2n1` [229_0254_0333, (2S)-2-[[3-(4-aminophenyl)imidazo[1,2-b]pyridazin-6-yl]amino]-3-methyl-butan-1-ol], for which the concentration for half-maximal inhibition (IC50) stood at 3050 nM.

With `c1ccc(CNc2ccc3ncc(-c4ccc5c(c4)OCO5)n3n2)nc1` [229_4007_0068, 3-(1,3-benzodioxol-5-yl)-N-(2-pyridylmethyl) imidazo[1,2-b]pyridazin-6-amine], the IC50 turned out to be 797 nM.

Turning to `COc1cccc(-c2cnc3ccc(NCC4CC4)nn23)c1` [229_4051_4140, N-(cyclopropyl-methyl)-3-(3-methoxyphenyl) imidazo[1,2-b]pyridazin-6-amine], the IC50 was 3300 nM.

As for `COc1cc(-c2cnc3ccc(NCc4ccc(C)cc4C)nn23)ccc1O` [229_4319_0314, 4-[6-[(2,4-dimethylphenyl)methylamino]imidazo[1,2-b]pyridazin-3-yl]-2-methoxy-phenol], the IC50 came out at 5310 nM.

`COc1cccc(-c2ccc3c(-c4ccc(C(=O)NCCCN(C)C)cc4)n[nH]c3n2)c1F` [267_0180_7936, N-[3-(dimethylamino)propyl]-4-[6-(2-fluoro-3-methoxy-phenyl)-1H-pyrazolo[3,4-b]pyridin-3-yl]benzamide]: the IC50 came to 7340 nM.

Turning to `COc1ccc(Nc2ccn3ncc(-c4cccc(O)c4)c3n2)cn1` [294_0042_0284, 3-[5-[(6-methoxy-3-pyridyl)amino]pyrazolo[1,5-a]pyrimidin-3-yl]phenol], the IC50 amounted to 3390 nM.

Turning to `COc1cccc(-c2cnn3ccc(Nc4ccc(OC)nc4)nc23)c1` [294_0042_4140, 3-(3-methoxyphenyl)-N-(6-methoxy-3-pyridyl)pyrazolo [1,5-a]pyrimidin-5-amine], the IC50 was 5310 nM.

For `COc1ccc(Nc2ccn3ncc(-c4cccc(C(C)=O)c4)c3n2)cn1` [294_0042_4145, 1-[3-[5-[(6-methoxy-3-pyridyl)amino]pyrazolo[1,5-a]pyrimidin-3-yl]phenyl] ethanone], the IC50 came out at 1640 nM.
